The text below walks through data of patent US20020032173A1, “Blood flow improvers and thrombosis preventives or remedies” (Koyo Chemical Co., Ltd., priority 2000, published 2002).

Values joined by “and” are separate entries in the source; they are usually repeats but may differ in a detail not shown here. Equal values may be shown once.

In experiment [1] the test system is adult volunteers. Description: Test 1: blood flow improving effects, whole blood transit time by microchannel array flow analyzer (MC-FAN) after oral glucosamine hydrochloride. In kind it is in vivo, human. To be noted: for Transit time: 100 μL heparinated whole blood; for Transit time, Mean: mean of 5 volunteers, mean before administration 50.3 sec. On the procedure: From each of adult volunteers (A: male, B: female, C: female, D: female, E: male) who had taken usual breakfast, a first blood sample (10 mL) was collected at 1:00 p.m. Immediately after the collection of the blood sample, 1.5 g of glucosamine hydrochloride with 50 mL of water was administered to the volunteer. Blood samples (10 mL, each; 5% heparinated) were collected upon elapsed time of 30 min, 60 min and 90 min after the administration. The fluidity of each blood sample was determined by a microchannel array flow analyzer (MC-FAN) which is a capillary model fabricated by VLSI technology. The determination was carried out as will be described below. A fresh 5%-heparinated whole blood sample, which had been obtained by adding 0.5 part by weight of a 1,000 IU/mL heparin sodium solution to 9.5 parts by weight of the corresponding blood sample, was caused to flow through an array of 8,736 parallel microchannels of 7 μm in width, 30 μm in length and 4.5 μm in depth (Bloody 6-7) under 20 cmH2O suction by using the microchannel array flow analyzer (MC-FAN). A transit time necessary for 100 μL of the whole blood sample to pass through the microchannels was measured. Using a transit time necessary for 100 μL of physiological saline to pass through the microchannels as measured just before the blood measurement, the transit time of the whole blood sample was converted in accordance with the following equation: Transit time of the whole blood x 12 sec/transit time of the physiological saline to obtain a value which would have been available if the transmit time of physiological saline had been 12 sec. The value was recorded as a blood transit time. The results are shown in Table 1, including indices of whole blood transit times of the blood samples collected after the administration of the glucosamine hydrochloride based on those of the corresponding blood samples collected before the administration of glucosamine hydrochloride (% relative to an initial value of 100%).

Experiment [2] relates to adult volunteers. Description: Test 3: whole blood transit time by MC-FAN after oral N-acetylglucosamine. The class given is in vivo, human. The following applies: mean before administration 60.9 sec. The method, then: From each of adult volunteers (A: male, B: female, C: female, D: female, E: male) who had taken usual breakfast, a first blood sample (10 mL) was collected at 1:00 p.m. Immediately after the collection of the blood sample, 1.5 g of glucosamine hydrochloride with 50 mL of water was administered to the volunteer. Blood samples (10 mL, each; 5% heparinated) were collected upon elapsed time of 30 min, 60 min and 90 min after the administration. The fluidity of each blood sample was determined by a microchannel array flow analyzer (MC-FAN) which is a capillary model fabricated by VLSI technology. The determination was carried out as will be described below. […] A transit time necessary for 100 μL of the whole blood sample to pass through the microchannels was measured. Using a transit time necessary for 100 μL of physiological saline to pass through the microchannels as measured just before the blood measurement, the transit time of the whole blood sample was converted in accordance with the following equation: Transit time of the whole blood x 12 sec/transit time of the physiological saline to obtain a value which would have been available if the transmit time of physiological saline had been 12 sec. The value was recorded as a blood transit time. […]

As to `Cl.N[C@H]1C(O)O[C@H](CO)[C@@H](O)[C@@H]1O` (stereo partly drawn) [glucosamine hydrochloride], the “Index (%) of whole blood transit time relative to initial value of 100%” value in the experiment with adult volunteers [1] (30 min after oral 1.5 g) amounted to 70.0%; in the experiment on adult volunteers [1] (60 min after oral 1.5 g), 67.1%. For the same molecule, the Transit time in the experiment with adult volunteers [1] (individual volunteer E, 90 min after oral 1.5 g with 50 mL water) was 31.6 s; with adult volunteers [1] (individual volunteers A-E, 30 min after oral 1.5 g with 50 mL water, normalised to saline 12 sec, hydrochloride), 35.3 s and 36.1 s and 28.6 s and 38.6 s and 37.1 s; in the experiment with adult volunteers [1] (individual volunteers A-E, 60 min after oral 1.5 g with 50 mL water, hydrochloride), 28.7 s and 37.1 s and 27.4 s and 42.3 s and 33.2 s. The “Transit time, Mean” value in the experiment with adult volunteers [1] (30 min after oral 1.5 g) stood at 35.1 s; in the experiment with adult volunteers [1] (60 min after oral 1.5 g), 33.7 s.

For `CC(=O)N[C@H]1C(O)O[C@H](CO)[C@@H](O)[C@@H]1O` (stereo partly drawn) [N-acetylglucosamine], the “mean blood transit time” value in the experiment with adult volunteers [2] (30 min after administration as in Test 1) was 36.5 s; with adult volunteers [2] (1 hr after administration as in Test 1), “increased back to the value before the administration”.
